Among the data in ChEMBL document CHEMBL3751784, “Synthesis of novel 1-substituted triazole linked 1,2-benzothiazine 1,1-dioxido propenone derivatives as potent anti-inflammatory agents and inhibitors of monocyte-to-macrophage differentiation” (2015) are inhibition and viability values, retold here.

Each structure is given as a SMILES string. Calls of active or inactive are those of the source. No cut-off for these calls is given here.

In experiment [1] the test system is THP-1. As to the kind of experiment: Inhibition of PMA-induced monocyte to macrophage differentiation in human THP1 cells assessed as reduction in MMP2 enzyme activity at 15 uM preincubated for 2 hrs followed by PMA addition measured after 48 hrs by gelatin zymographic analysis. It counts as functional, cell-based.
Experiment [2] deals with THP-1. Description: Inhibition of PMA-induced monocyte to macrophage differentiation in human THP1 cells assessed as reduction in MMP9 enzyme activity at 15 uM preincubated for 2 hrs followed by PMA addition measured after 48 hrs by gelatin zymographic analysis. It counts as functional, cell-based.
The subject of experiment [3] is THP-1. As to the kind of experiment: Inhibition of PMA-induced MMP9 transcript level in human THP1 cells at 15 uM preincubated for 2 hrs followed by PMA addition measured after 24 hrs by RT-PCR analysis. It is filed as functional, cell-based.
In experiment [4] the test system is THP-1. Description: Antiinflammatory activity in human THP1 cells assessed as inhibition of PMA-induced TNFalpha secretion preincubated for 2 hrs followed by PMA addition measured after 48 hrs by ELISA. It counts as functional, cell-based.
For experiment [5], the system named is THP-1. As to the kind of experiment: Inhibition of PMA-induced monocyte/macrophage invasion in human THP1 cells at 15 uM preincubated for 2 hrs followed by PMA addition measured after 48 hrs by collagen-coated Boyden chamber invasion assay. It counts as functional, cell-based.
A short description of experiment [6]: (§1) Antiinflammatory activity in human THP1 cells assessed as inhibition of PMA-induced IL-1beta secretion at 10 uM preincubated for 2 hrs followed by PMA addition measured after 48 hrs by ELISA. It counts as functional. The following applies: THP-1.
The subject of experiment [7] is THP-1. Description: Inhibition of PMA-induced MMP1 transcript level in human THP1 cells at 15 uM preincubated for 2 hrs followed by PMA addition measured after 24 hrs by RT-PCR analysis. It counts as functional, cell-based.
Experiment [8] is described as follows: Antiinflammatory activity in human THP1 cells assessed as inhibition of PMA-induced TNFalpha secretion at 10 uM preincubated for 2 hrs followed by PMA addition measured after 48 hrs by ELISA. It counts as functional. The following applies: THP-1.
For experiment [9], the system named is THP-1. As to the kind of experiment: Inhibition of PMA-induced monocyte to macrophage differentiation in human THP1 cells assessed as reduction in LOX-1 transcript level at 15 uM preincubated for 2 hrs followed by PMA addition measured after 24 hrs by RT-PCR analysis. It counts as functional, cell-based.
A short description of experiment [10]: (§2) Antiinflammatory activity in human THP1 cells assessed as inhibition of PMA-induced MCP-1 secretion at 10 uM preincubated for 2 hrs followed by PMA addition measured after 48 hrs by ELISA. It is filed as functional. Particulars: THP-1.
Experiment [11] deals with THP-1. As to the kind of experiment: Inhibition of PMA-induced monocyte to macrophage differentiation in human THP1 cells assessed as reduction in CD-36 transcript level at 15 uM preincubated for 2 hrs followed by PMA addition measured after 24 hrs by RT-PCR analysis. It counts as functional, cell-based.
The test system of experiment [12] is THP-1. As to the kind of experiment: Inhibition of PMA-induced monocyte to macrophage differentiation in human THP1 cells assessed as reduction in lysosomal activity at 15 uM preincubated for 2 hrs followed by PMA addition measured after 48 hrs by lysotracker dye-based fluorescence microscopic analysis. It is filed as functional, cell-based.
Experiment [13] relates to THP-1. Description: Antiinflammatory activity in human THP1 cells assessed as inhibition of PMA-induced IL-1beta secretion preincubated for 2 hrs followed by PMA addition measured after 48 hrs by ELISA. It counts as functional, cell-based.
Experiment [14] deals with THP-1. As to the kind of experiment: Antiinflammatory activity in human THP1 cells assessed as inhibition of PMA-induced COX2 mRNA level preincubated for 2 hrs followed by PMA addition measured after 48 hrs by RT-PCR analysis. It counts as functional, cell-based.
For experiment [15], the system named is THP-1. As to the kind of experiment: Inhibition of PMA-induced monocyte to macrophage differentiation in human THP1 cells assessed as reduction in cell adherence at 15 uM preincubated for 2 hrs followed by PMA addition measured after 48 hrs by phase contrast microscopic analysis. It is filed as functional, cell-based.
The test system of experiment [16] is THP-1. Description: Antiinflammatory activity in human THP1 cells assessed as inhibition of PMA-induced MCP-1 secretion preincubated for 2 hrs followed by PMA addition measured after 48 hrs by ELISA. It counts as functional, cell-based.
A short description of experiment [17]: Cytotoxicity against human THP1 cells assessed as cell viability at 20 uM after 48 hrs by tryphan blue dye exclusion assay relative to control. It counts as functional. Particulars: THP-1, 48 h, read-out: Activity.
The test system of experiment [18] is THP-1. As to the kind of experiment: Inhibition of PMA-induced monocyte to macrophage differentiation in human THP1 cells assessed as reduction in cell size at 15 uM preincubated for 2 hrs followed by PMA addition measured after 48 hrs by mitotracker dye-based confocal microscopic analysis. It counts as functional.
The test system of experiment [19] is THP-1. The description is as §1. It is filed as functional.
The test system of experiment [20] is THP-1. Described as §2. It counts as functional.

`Cc1ccc(NC(=O)Cn2cc(/C=C/C(=O)C3=C(O)c4ccccc4S(=O)(=O)N3C)nn2)cc1`: the inhibition entry in the experiment on THP-1 [1] is “inactive”. Moreover, the inhibition result with THP-1 [2], with THP-1 [3], in the experiment with THP-1 [5], in the experiment on THP-1 [7], in the experiment on THP-1 [9] and in the experiment with THP-1 [11] was “Active” in each case. Further, the inhibition result in the experiment with THP-1 [12], in the experiment on THP-1 [14], with THP-1 [15] and in the experiment on THP-1 [18] was “Active” each time. The inhibition entry with THP-1 [4], with THP-1 [13] and in the experiment on THP-1 [16] was “Dose-dependent effect” throughout. The inhibition at 10 µM in [6] was found to be 74.9%; in experiment [8], 84.7%; in experiment [10], 87.2%. The viability at 20 µM in experiment [17] turned out to be 97%.

`CN1C(C(=O)/C=C/c2cn(-c3cccc(F)c3)nn2)=C(O)c2ccccc2S1(=O)=O`: the inhibition result in the experiment with THP-1 [19] and with THP-1 [20] was “inactive” throughout. Besides, in experiment [8], the inhibition at 10 µM was 48.3%. Also, in experiment [17], the viability at 20 µM worked out at 93%.

Consider `CN1C(C(=O)/C=C/c2cn(CC(=O)Nc3cccc(C(F)(F)F)c3)nn2)=C(O)c2ccccc2S1(=O)=O`, for which the inhibition result with THP-1 [1] was “inactive”. The inhibition entry in the experiment on THP-1 [2], in the experiment with THP-1 [3], in the experiment with THP-1 [5], with THP-1 [7], with THP-1 [9] and in the experiment on THP-1 [11] was “Active” each time. Besides, the inhibition result in the experiment with THP-1 [12], in the experiment with THP-1 [14], with THP-1 [15] and with THP-1 [18] was “Active” each time. Also, the inhibition entry with THP-1 [4], in the experiment on THP-1 [13] and in the experiment on THP-1 [16] was “Dose-dependent effect” in each case. In addition, the inhibition at 10 µM in experiment [6] turned out to be 83.6%; in [8] it was 87.6%; in [10], 85.1%. In experiment [17], the viability at 20 µM amounted to 96.2%.

Turning to `CN1C(C(=O)/C=C/c2cn(CC(=O)Nc3cccc(Cl)c3)nn2)=C(O)c2ccccc2S1(=O)=O`, the inhibition result in the experiment with THP-1 [1] was “inactive”. For the same compound, the inhibition entry in the experiment with THP-1 [2], in the experiment on THP-1 [3], with THP-1 [5], in the experiment on THP-1 [7], in the experiment on THP-1 [9] and in the experiment with THP-1 [11] was “Active” in each case. The inhibition entry in the experiment on THP-1 [12], in the experiment on THP-1 [14], in the experiment on THP-1 [15] and with THP-1 [18] was “Active” each time. Also, the inhibition result in the experiment on THP-1 [4], with THP-1 [13] and in the experiment with THP-1 [16] was “Dose-dependent effect” in each case. In addition, the inhibition at 10 µM is 80.4% in experiment [6], 91.1% in experiment [8] and 84% in experiment [10]. In addition, in experiment [17], the viability at 20 µM turned out to be 98.2%.
